This is an account of results in PMC8611673 (JACS Au, 2021).

Structures are written as SMILES.

The subject of this series is HeLa 654 cells. The experiment in a line: EGFP assay with chemical endocytosis inhibitors. Format: cell-based, human. As to conditions: higher concentrations of the inhibitor.

Consider `COC[C@H]1OC(=O)c2coc3c2[C@@]1(C)C1=C(C3=O)[C@@H]2CCC(=O)[C@@]2(C)C[C@H]1OC(C)=O` [wortmannin], for which the “toxicity of the inhibitor to HeLa 654 cells” value is listed as “appeared to be toxic”.

Take `C=C1[C@@H](C)[C@H]2[C@H](Cc3ccccc3)NC(=O)[C@]23[C@H](OC(C)=O)/C=C/[C@@](C)(O)C(=O)[C@@H](C)C/C=C/[C@H]3[C@@H]1O` [cytochalasin D]: the “toxicity of the inhibitor to HeLa 654 cells” value is reported as “appeared to be toxic”.
